This note sets out measurements from patent publication US9526766B2, “Potentiation of antibiotic treatment with a protein-lipid complex” (priority 2012, dated 2016).

One experiment concerns Staphylococcus aureus. Description: Bactericidal activity on planktonic cultures. The conditions noted are these: antibiotic alone. Format: cell-based. How it is done: Methodology: In late logarithmic growth phase, the bacteria were harvested by centrifugation at 12,000×g for 10 minutes and resuspended in phosphate-buffered saline (PBS; […], […], […], pH 7.4). Appropriate dilutions of the bacteria were suspended in PBS and treated with indicated concentrations of ALAFAC and/or antibiotics for various times. The effect on bacterial viability was assessed by plating serial dilutions of bacterial sample on tryptic soy agar plates containing 5% sheep blood (viable counts) and determining viable colony forming units after overnight growth at 37° C.

The subject of experiment [1] is S. aureus NRS70 (MRSA) nasopharyngeal colonization. The experiment can be described thus: Murine nasopharyngeal colonization model, intranasal treatment. Format: in vivo, Staphylococcus aureus. The following applies: for Colonization burden: mice colonized with NRS70 for 48 hours, methicillin single dose 100 μg (5,000 μg/ml) alone, ALAFAC alone at the same dose. How it is done: Methodology: Six-week-old female BALB/cByJ mice from Jackson Laboratories (Bar Harbor, Me., U.S.A.) were maintained in filter-top cages on standard laboratory chow and water ad libitum until use. Mice were colonized as described previously. In short, 20 μl of a bacterial suspension containing 5×10^6 CFUs of EF3030 pneumococci, 1×10^8 CFUs of SP670 pneumococci, or 5×10^7 NRS70 methicillin-resistant S. aureus in PBS were pipetted into the nares of non-anesthetized mice. After 48 hours, mice were treated with 20 μl gentamicin (0-5,000 μg/mL), 20 μl penicillin (0-5,000 μg/mL), or 20 μl of methicillin (0-5,000 μg/ml) in the presence or absence of 50 or 100 μg ALAFAC in the nares for 6 hours as a single dose. Colonization burden was then assessed after euthanizing the animals by enumerating viable bacteria from harvested nasopharyngeal tissue after the nasal wash. Nasopharyngeal tissue was dissected out as described by removing the upper skull bone, and harvesting the tissue present in the nasal conchae with forceps. Bacterial load was measured by determining viable plate counts from the homogenized tissue.
Mice were colonized as described. In short, 10 μl of a bacterial suspension containing 5×10^7 CFUs of NRS 70 staphylococci in PBS were pipetted into the nares of non-anesthetized mice. After 24 hours, mice were treated with 20 μl methicillin (0-100 μg or 0-5,000 μg/mL) in the presence or absence of 20 μl (100 μg) ALAFAC in the nares for 12 hours. Colonization burden was then assessed after euthanizing the animals by enumerating viable bacteria both in a nasopharyngeal lavage obtained by injecting 100 μL PBS in the trachea of mice and collecting it as it flowed out the nares, and from harvested nasopharyngeal tissue after the nasal wash. Nasopharyngeal tissue was dissected out as described by removing the upper skull bone, and harvesting the tissue present in the nasal conchae with forceps. Bacterial load was measured by determining viable plate counts from the nasal lavage or from homogenized tissue as described above.

The test system of a further experiment is Streptococcus pneumoniae. Description: MIC by broth microdilution, antibiotics with and without ALAFAC. It counts as cell-based. As to the method: Methodology: Minimal inhibitory concentrations (MICs) were determined in 96-well microtiter plates using the microdilution method according to approved standards of the CLSI except that Todd-Hewitt medium supplemented with 0.5% yeast extract, which yields reproducible MIC results was used as the test medium for S. pneumoniae. For the remaining species Mueller-Hinton medium was used as indicated by the CLSI standard. Each well contained two-fold dilutions of antibiotic, was seeded with a final bacterial concentration of 10^5 CFU/mL, and was incubated for 18 h at 37° C. in a Synergy II microplate reader (Biotek, Winooski, Vt.) where the OD600 was recorded every 5 minutes to monitor bacterial growth. The MIC was defined as the lowest concentration of antimicrobial agent solution at which no increase in OD600 was detected.
In vitro susceptibility tests. Minimal inhibitory concentrations (MICs) were determined in 96-well microtiter plates using the microdilution method according to approved standards of the CLSI except that Todd-Hewitt medium supplemented with 0.5% yeast extract, which yields reproducible MIC results was used as the test medium for S. pneumoniae. MICs for A. baumanni, and M. catarrhalis were determined in MH media. Two-fold dilutions of a starting antibiotic concentration was added in triplicate into microtiter plate wells (in 96-well plates), were seeded with a final bacterial concentration of ˜10^5 colony forming units (CFU)/mL, and was incubated for 18 h in ambient air at 37° C. in a Synergy II microplate reader (Biotek, Winooski, Vt.) where the OD600 was recorded every 5 minutes to monitor bacterial growth. The MIC was defined as the lowest concentration of antimicrobial agent solution at which no increase in OD600 was detected.

Experiment [2] has as its system Streptococcus pneumoniae biofilms. The experiment can be described thus: Static biofilm model, viable counts. It counts as cell-based. The following applies: for Biofilm killing: alone or combined; for Minimum antibiotic concentration for bactericidal (>3 log10) activity on biofilms: within 4-6 hours, antibiotic alone. As to the method: Methodology: Pneumococci were grown statically in CDM and S. aureus were grown in trypic soy medium to mid-logarithmic phase (OD600=0.5), washed, and resuspended in fresh pre-warmed medium to a density of 2×10^4 CFU in 500 μl volume, and suspensions were used to seed sterile round glass coverslips in the bottom of polystyrene 24-well plates with or without a substratum of confluent H292 epithelial cells. Biofilms were cultured at 34° C. in 5% CO2 for indicated times with change of culture media every 12 hours and to assess biomass and antibiotic resistance by viable counts (as described).
Biofilms were then washed in PBS and detached by scraping the surface in the presence of 100 μL PBS followed by a rinse with 100 μL PBS. Collected cells were sonicated in a sonication water bath for 2 s followed by vortexing twice for 20 seconds at high speed and the dispersed biofilm cells were used to determine viable CFUs per ml from diluted samples plated and grown on blood agar.
Static Biofilm Model. Pneumococci were grown in CDM to mid-logarithmic phase (OD600=0.5), washed, and resuspended in fresh pre-warmed medium to a density of 2×10^4 CFUs in 500 μl volume, and suspensions were used to seed sterile round glass coverslips in the bottom of polystyrene 24-well plates with a substratum of confluent H292 epithelial cells as described. Biofilms were cultured at 34° C. in 5% CO2 for indicated times with change of culture media every 12 hours and used for SEM studies or to assess biomass and antibiotic resistance by viable plate counts.
Biofilms were then washed in PBS, dispersed by sonication, and collected by pipetting in 100 μL PBS followed by a rinse with 100 μL PBS. Collected cells were then vortexed twice for 20 seconds at high speed and the dispersed biofilm cells were used to determine viable CFUs per ml from diluted samples plated and grown on blood agar. Results are reported as the total number of CFUs per biofilm.

Where [3] appears, read: S. aureus NRS384, within 4-6 hours.
Where [4] appears, read: D39 48 h biofilm (8.3 log10) on epithelial substratum, 250 μg/ml ALAFAC, 100 μg/ml penicillin.
Setting [5] is: SP670 biofilm, ALAFAC 250 μg/mL, penicillin 100 μg/mL.
The mark [6] stands for this setting: S. pneumoniae EF3030, agent alone.
The mark [7] stands for this setting: S. pneumoniae in liquid culture.
The mark [8] stands for this setting: EF3030 48 h biofilm (7.5 log), 100 μg/mL ALAFAC, 200 μg/ml gentamicin, 3 hours.

Read-outs that look alike come from different tables or passages of the source.

With `COc1cccc(OC)c1C(=O)N[C@@H]1C(=O)N2[C@@H]1SC(C)(C)[C@@H]2C(=O)O` [Methicillin, methicillin], the “Minimum antibiotic concentration for bactericidal (>3 log10) activity, planktonic” value in the experiment on Staphylococcus aureus (S. aureus 10307570) is above 128 μg/ml; in the experiment on Staphylococcus aureus (S. aureus 11090306) it was 64 μg/ml; in the experiment with Staphylococcus aureus (S. aureus NRS1) it was above 128 μg/ml; in the experiment on Staphylococcus aureus (S. aureus NRS70) it was 128 μg/ml; in the experiment with Staphylococcus aureus (S. aureus NRS71), above 128 μg/ml; in the experiment with Staphylococcus aureus (S. aureus NRS100) it was above 128 μg/ml. The “Minimum antibiotic concentration for bactericidal (>3 log10) activity, planktonic” value in the experiment on Staphylococcus aureus (S. aureus NRS123) and in the experiment with Staphylococcus aureus (setting [3]) was above 128 μg/ml in each case. The “Minimum antibiotic concentration for bactericidal (>3 log10) activity on murine nasopharyngeal colonization” value in experiment [1] (NRS70, mice, within 12 hours, antibiotic alone) is above 100 μg/dose. In addition, the “MRSA colonization, nasopharyngeal tissue” value in experiment [1] (mice colonized with NRS 70 for 24 h, one dose, 100 μg methicillin alone or with 100 μg ALAFAC, 12 hours) is “failed to significantly reduce”. Also, the Colonization burden entry in experiment [1] is reported as “no effect”.

Take `CC1(C)S[C@@H]2[C@H](NC(=O)Cc3ccccc3)C(=O)N2[C@H]1C(=O)O` [Penicillin, penicillin G]: the minimum inhibitory concentration (MIC) amounted to 0.01 µg/mL in the experiment on Streptococcus pneumoniae (Streptococcus pneumoniae, S. pneumoniae D39, agent alone, read-out: MIC); 0.01 µg/mL in the experiment with Streptococcus pneumoniae (Streptococcus pneumoniae, S. pneumoniae EF3030, agent alone, read-out: MIC); 4 µg/mL in the experiment with Streptococcus pneumoniae (Streptococcus pneumoniae, S. pneumoniae SP670 (penicillin-resistant), agent alone, read-out: MIC). In addition, the values for the Biofilm killing result in experiment [2] (setting [4]) and in experiment [2] (setting [5]) were “not bactericidal” and “almost complete resistance”, respectively. Moreover, the “Minimum antibiotic concentration for bactericidal (>3 log10) activity on biofilms” value in experiment [2] (S. pneumoniae D39 biofilm) and in experiment [2] (S. pneumoniae SP670 biofilm) was above 5000 μg/ml throughout.

As to gentamicin, the MIC in the experiment on Streptococcus pneumoniae (S. pneumoniae D39, agent alone) is 16 µg/mL; in the experiment on Streptococcus pneumoniae (setting [6]), 16 µg/mL; in the experiment with Streptococcus pneumoniae (setting [7]) it was 16 µg/mL. Further, the “Minimum antibiotic concentration for bactericidal (>3 log10) activity, planktonic” value with Staphylococcus aureus (setting [3]) amounted to 50 μg/ml. Further, the Biofilm killing in experiment [2] (setting [8]) is listed as 1.1 log. Also, the Biofilm bactericidal activity result in experiment [2] (EF3030 48 h biofilm, gentamicin 200 or 500 μg/mL alone or with 100 μg/mL ALAFAC, 3 hours) is “Neither concentration of gentamicin was bactericidal”. In addition, the “Minimum antibiotic concentration for bactericidal (>3 log10) activity on biofilms” value in experiment [2] (S. pneumoniae D39 biofilm) and in experiment [2] (S. pneumoniae EF3030 biofilm) was above 600 μg/ml in each case.

B1: ALAFAC: non-covalent complex of alpha-lactalbumin and fatty acid (oleic acid); labeled HAMLET or HL in drawings and tables (protein, UniProt P00709 20-142, looked up)
Alpha-lactalbumin: KQFTKCELSQLLKDIDGYGGIALPELICTMFHTSGYDTQAIVENNESTEYGLFQISNKLWCKSSQVPQSRNICDISCDKFLDDDITDDIMCAKKILDIKGIDYWLAHKALCTEKLEQWLCEKL
modifications: complexed with oleic acid
For the molecule B1, the MIC was 20 µg/mL in the experiment with Streptococcus pneumoniae (S. pneumoniae D39, agent alone); 20 µg/mL in the experiment with Streptococcus pneumoniae (setting [6]); 20 µg/mL with Streptococcus pneumoniae (S. pneumoniae JY53 (erythromycin-resistant), agent alone); 20 µg/mL with Streptococcus pneumoniae (S. pneumoniae SP670 (penicillin-resistant), agent alone); “≈ 20 μg/ml” in the experiment with Streptococcus pneumoniae (setting [7]). Further, the Biofilm killing result in experiment [2] (setting [4]) is reported as “not bactericidal”; in experiment [2] (setting [8]), “no bactericidal activity”; in experiment [2] (setting [5]), “almost complete resistance”. For the same molecule, the Colonization burden result in experiment [1] is recorded as “no effect”.
